Results published in patent US20130065928A1, “BIOMARKERS FOR PI3K-DRIVEN CANCER” (WYETH LLC, priority 2010, published 2013).

What was measured:
kinase dead PKN3 = target: T1, kinase dead PKN3 (Homo sapiens, UniProt Q6P5Z2, K588R); assay: Priming of kinase dead PKN3 for turn motif threonine phosphorylation by ATP binding pocket competitive inhibitors (Western blot); type: cell-based; details: KD PKN3 (K588R) in transfected cells; changing concentrations; FIG. 3
T1 construct: The full-length cDNA of human PKN3 (WT or wt) was amplified by PCR and cloned into a GST-fusion expression vector; GST; expressed in transfected cells; host or cells: HEK293T
Excerpt: (§1) The full-length cDNA of human PKN3 (WT or wt) was amplified by PCR and cloned into a GST-fusion expression vector under the control in a doxycycline (Dox)-inducible promoter. A kinase dead (KD or kd) version of PKN3, which comprises a K588R substitution, was also cloned into the same vector using the same strategy. The proteins were expressed in HEK293T cells transfected with the PKN3 WT and KD constructs. […] WT PKN3 is phosphorylated at the turn motif threonine (P*-PKN3^T860) and phosphorylates the GSKα substrate, whereas the KD version does neither (FIG. 1).
(§2) For protein extraction, cells were washed twice with cold phosphate-buffered saline (PBS) and lysed at 4° C. in lysis buffer containing 20 mM Tris (pH 7.5), 137 mM NaCl, 15% (vol/vol) glycerol, 1% (vol/vol) Nonidet P-40 (NP-40), 2 mM phenylmethylsulfonyl fluoride, […] of aprotinin per ml, […] leupeptin, 2 mM benzamidine, 1 mM sodium vanadate, 25 mM β-glycerolphosphate, 50 mM NaF, and 10 mM Na-pyrophosphate. Lysates were cleared by centrifugation at 14,000×g for 5 min, and aliquots of the lysates were analyzed for protein expression and enzyme activity (see below). Samples were separated by sodium dodecyl sulfate-polyacrylamide gel electrophoresis (SDS-PAGE) and transferred to nitrocellulose filters (Schleicher & Schuell). Filters were blocked in TBST buffer (10 mM Tris-HCl [pH 7.5], 150 mM NaCl, 0.05% [vol/vol] Tween 20, 0.5% [wt/vol] sodium azide) containing 5% (wt/vol) dried milk. The respective antibodies were added in TBST at appropriate dilutions. Bound antibody was detected with anti-mouse-, anti-goat, or anti-rabbit-conjugated alkaline phosphatase (Santa Cruz Biotechnology) in TBST, washed, and developed with nitroblue tetrazolium and 5-bromo-4-chloro-3-indolylphosphate (Promega). Alternatively, horseradish peroxidase-conjugated secondary antibodies were used and developed by enhanced chemiluminescence (Amersham).

PKN3 = target: T2, PKN3 (Homo sapiens, UniProt Q6P5Z2); assay: Kinase activity of PKN3 in transfected cells, phospho-GSKα read-out (Western blot); type: cell-based; details: cells transfected with WT PKN3; changing concentrations; FIG. 2
T2 construct: The full-length cDNA of human PKN3 (WT or wt) was amplified by PCR and cloned into a GST-fusion expression vector; GST; expressed in transfected cells; host or cells: HEK293T
Excerpt: as §1, §2
Various ATP-type kinase inhibitors were assessed for their ability to inhibit the kinase activity of both recombinant wildtype (WT) and kinase dead (KD) versions of PKN3.

PKN3-T718 = assay: Activation loop (T718) phosphorylation of Y27632-primed PKN3 after kinase inhibitor treatment (Western blot); type: cell-based, human; details: WT and KD PKN3, doxycycline 1 μg/ml 5 hours, primed with 10 μM Y27632, inhibitor 7 hours; FIGS. 4 and 5
Excerpt: (§3) The full-length cDNA of human PKN3 (WT or wt) was amplified by PCR and cloned into a GST-fusion expression vector under the control in a doxycycline (Dox)-inducible promoter. A kinase dead (KD or kd) version of PKN3, which comprises a K588R substitution, was also cloned into the same vector using the same strategy. The proteins were expressed in HEK293T cells transfected with the PKN3 WT and KD constructs.
as §2, with “Filters were blocked in TBST buffer (10 mM Tris-HCl [pH 7.5], 150 mM NaCl, 0.05% [vol/vol] Tween 20, 0.5% [wt/vol] sodium azide) containing 5% (wt/vol) dried milk. The respective antibodies were added in TBST at appropriate dilutions.” left out, “Alternatively, horseradish peroxidase-conjugated secondary antibodies were used and developed by enhanced chemiluminescence (Amersham).” left out

[1] = system: HEK293T cells transfected with wild-type PKN3; assay: PKN3-induced morphology changes in cells (photomicrographs); type: cell-based; details: FIG. 6, panel C
Excerpt: FIG. 6 depicts photomicrographs of HEK293T cells transfected with wild-type (panels A, B and C) or kinase-dead (panels D, E and F) PKN3 constructs under control of a doxycycline responsive promoter, in the absence of doxycycline (panels A and D), in the presence of doxycycline (panels B and E) or in the presence of doxycycline and WAY-125132 (panels C and F).
The effects of WAY-125132 on PKN3-induced morphology changes in cells were examined.

AKT-S473 = assay: Phosphorylation of AKT-S473, a target of mTORC2 (Western blot); type: cell-based; details: PKN3-transfected cells, inhibitor 7 hours; FIGS. 4 and 5
Experimental: as §2
(§4) PKN antibodies have been described in Leenders, 2004. […]

S6K-ST389 = assay: Phosphorylation of S6K-ST389, a target of mTORC1 (Western blot); type: cell-based; details: PKN3-transfected cells, inhibitor 7 hours; FIGS. 4 and 5
Experimental: as §2, §4

PKN3-T860 = assay: Turn motif (T860) phosphorylation of Y27632-primed PKN3 after kinase inhibitor treatment (Western blot); type: cell-based, human; details: WT and KD PKN3, doxycycline 1 μg/ml 5 hours, primed with 10 μM Y27632, inhibitor 7 hours; FIGS. 4 and 5
Excerpt: as §3
as §2, with “Filters were blocked in TBST buffer (10 mM Tris-HCl [pH 7.5], 150 mM NaCl, 0.05% [vol/vol] Tween 20, 0.5% [wt/vol] sodium azide) containing 5% (wt/vol) dried milk. The respective antibodies were added in TBST at appropriate dilutions.” left out, “Alternatively, horseradish peroxidase-conjugated secondary antibodies were used and developed by enhanced chemiluminescence (Amersham).” left out

PKN2 = assay: Phosphorylated PKN2 (Western blot); type: cell-based; details: PKN3-transfected cells, inhibitor 7 hours; FIGS. 4 and 5, panels C
Experimental: as §2, with “(Amersham). […]” for “(Amersham).”

PKN1 = assay: Phosphorylated PKN1 (Western blot); type: cell-based; details: PKN3-transfected cells, inhibitor 7 hours; FIGS. 4 and 5, panels C
Experimental: as §2, with “(Amersham). […]” for “(Amersham).”

T1 sequence (Q6P5Z2 whole entry K588R, the tested form may be a part): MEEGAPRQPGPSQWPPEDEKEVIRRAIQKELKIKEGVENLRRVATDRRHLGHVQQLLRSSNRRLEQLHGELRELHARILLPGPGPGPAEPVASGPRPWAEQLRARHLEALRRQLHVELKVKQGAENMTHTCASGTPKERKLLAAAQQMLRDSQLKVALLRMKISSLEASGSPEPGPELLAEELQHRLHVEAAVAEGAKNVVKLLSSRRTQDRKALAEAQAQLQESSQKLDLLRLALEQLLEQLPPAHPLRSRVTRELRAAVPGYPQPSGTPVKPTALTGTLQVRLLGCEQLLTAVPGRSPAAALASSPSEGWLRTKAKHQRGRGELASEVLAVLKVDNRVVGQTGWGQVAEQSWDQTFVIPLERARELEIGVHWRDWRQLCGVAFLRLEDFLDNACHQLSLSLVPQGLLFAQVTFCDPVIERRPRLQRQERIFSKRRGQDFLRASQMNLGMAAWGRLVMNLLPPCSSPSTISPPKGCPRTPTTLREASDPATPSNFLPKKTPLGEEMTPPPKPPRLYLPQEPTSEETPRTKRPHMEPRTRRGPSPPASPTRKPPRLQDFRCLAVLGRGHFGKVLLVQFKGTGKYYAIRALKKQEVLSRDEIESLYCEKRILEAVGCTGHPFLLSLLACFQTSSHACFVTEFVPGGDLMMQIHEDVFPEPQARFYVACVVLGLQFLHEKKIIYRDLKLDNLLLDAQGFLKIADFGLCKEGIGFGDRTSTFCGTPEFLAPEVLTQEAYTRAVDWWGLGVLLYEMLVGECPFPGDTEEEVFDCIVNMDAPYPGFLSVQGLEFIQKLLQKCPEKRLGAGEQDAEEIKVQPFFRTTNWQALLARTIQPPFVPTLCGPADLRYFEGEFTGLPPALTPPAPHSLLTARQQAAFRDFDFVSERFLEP
T2 sequence (Q6P5Z2 whole entry, the tested form may be a part): as the sequence (Q6P5Z2 whole entry K588R, the tested form may be a part) above, with R588K counted along it

| SMILES | priming of kinase dead PKN3 to become phosphorylated at the turn motif threonine (kinase dead PKN3) | inhibition of kinase activity of kinase active phosphorylated PKN3 (phospho-GSKα read-out) (PKN3) | inhibition of PKN3 T718 phosphorylation (PKN3-T718) | effect on transformed phenotype of doxycycline treated cells transfected with WT PKN3 [1] | inhibition of phosphorylation of AKT-S473 (AKT-S473) | inhibition of phosphorylation of S6K-ST389 (S6K-ST389) | inhibition of PKN3 T860 phosphorylation (PKN3-T860) | effect on PKN2 (PKN2) | effect on PKN1 (PKN1) |
| --- | --- | --- | --- | --- | --- | --- | --- | --- | --- |
| C[C@@H](N)[C@H]1CC[C@H](C(=O)Nc2ccncc2)CC1 [Y27632] | primed kinase dead PKN3 to become phosphorylated at the turn motif threonine in a concentration dependent manner | inhibit the kinase activity of kinase active phosphorylated PKN3 in a concentration dependent manner | – | – | – | – | – | – | – |
| CCc1[nH]c(-c2ccc(OC)cc2)nc1-c1ccncc1 [SB202474] | not | not | – | – | – | – | – | – | – |
| Oc1ccc(-c2nc(-c3ccncc3)c(-c3ccc(F)cc3)[nH]2)cc1 [SB202190] | primed kinase dead PKN3 to become phosphorylated at the turn motif threonine in a concentration dependent manner | inhibit the kinase activity of kinase active phosphorylated PKN3 in a concentration dependent manner | – | – | – | – | – | – | – |
| Cl.Cl.N=C(N)NN=C(Cn1ccnc1)c1ccc(Cl)cc1Cl [WAY-125132, 2-[1-(2,4-Dichlorophenyl)-2-(1H-imidazol-1-yl)ethylidene]hydrazinecarboximidamide dihydrochloride] | – | – | not T718 phosphorylation | reversed this effect | inhibit the phosphorylation | inhibit the phosphorylation of S6K-ST389 | inhibit T860 phosphorylation in a dose dependent manner | – | – |
| CO[C@H]1C[C@@H]2CC[C@@H](C)[C@@](O)(O2)C(=O)C(=O)N2CCCC[C@H]2C(=O)O[C@H]([C@H](C)C[C@@H]2CC[C@@H](OC(=O)C(C)(CO)CO)[C@H](OC)C2)CC(=O)[C@H](C)/C=C(\C)[C@@H](O)[C@@H](OC)C(=O)[C@H](C)C[C@H](C)/C=C/C=C/C=C/1C [CCI-779, (3S,6R,7E,9R,10R,12R,14S,15E,17E,19E,21S,23S,26R,27R,34aS)-9,10,12,13,14,21,22,23,24,25,26,27,32,33,34,34a-Hexadecahydro-9,27-dihydroxy-3-[(1R)-2-[(1S,3R,4R)-4-hydroxy-3-methoxycyclohexyl]-1-methylethyl]-10,21-dimethoxy-6,8,12,14,20,26-hexamethyl-23,27-epoxy-3H-pyrido[2,1-c][1,4]oxaazacyclohentriacontine-1,5,11,28,29(4H,6H,31H)-pentone 4′-[2,2-bis(hydroxymethyl)propionate]] | – | – | had no effect | – | had no effect | inhibit S6K-ST389 | had no effect | had no effect | had no effect |
